For assay [1], the system named is Experimental Pseudomonas keratitis. Briefly: Anti-inflammatory test: slit lamp scoring of conjunctival and corneal inflammation in experimental Pseudomonas keratitis. The conditions noted are these: for Score (conjunctiva) Mean ± SE: conjunctival inflammation at 48 hours after bacterial inoculation, sum of scores; for Score (conjunctiva) Mean ± SE / Score (cornea) Mean ± SE: 6 eyes; for Score (cornea) Mean ± SE: corneal inflammation at 60 hours after bacterial inoculation, sum of corneal opacity (0–8) and corneal ulcer (0–3). It counts as in vivo, Japanese white rabbits. How it is done:
Experimental Pseudomonas keratitis was induced for 12 Japanese white rabbits (13 weeks old, Std: JW/CSK) as described in Test Experiment 1. After bacterial inoculation, the rabbits were divided into 4 groups (three rabbits-six eyes/group). Fifty microliters of each test substance or vehicle was topically applied to both eyes of each animal 4 times a day at intervals of 4 hours beginning 12 hours after the bacterial inoculation. The test substance and vehicle were the same as those used in Test Example 1. Rabbit eyes were examined with a slit lamp biomicroscope, and severity of conjunctival inflammation at 48 hours after bacterial inoculation and corneal inflammation at 60 hours after bacterial inoculation were evaluated by assigning a numerical value to the following signs based on the method described by Kuriyama H et al. Corneal inflammation was evaluated by sums of the scores of corneal opacity (score 0–8) and corneal ulcer (score 0–3). Conjunctival inflammation was evaluated by sums of the scores of redness of palpebral conjunctival inflammation (score 0–4), edema of palpebral conjunctiva (score 0–4), nictitating membrane status (score 0–3) and discharge (score 0–3).

Assay [2] relates to Pseudomonas aeruginosa IID-1210. Briefly: Anti-microbial test: viable bacterial counts in wounded rabbit cornea inoculated with Pseudomonas aeruginosa. It counts as in vivo. The settings on record: for Colony forming units per gram of cornea Mean ± SE: cornea excised 4 hours after administration, Japanese white rabbits, 6 eyes. How it is done: Single colony isolate of Pseudomonas aeruginosa IID-1210 (provided by Department of Ophthalmology, Yokohama City University School of Medicine, Japan) on NAC agar plate was inoculated in 2 mL of heart infusion broth, and kept for overnight at 37° C. One hundred microliters of the overnight culture was inoculated in 10 mL of heart infusion broth, and then grown for about 12 hours at 37° C. with shaking. Twelve Japanese white rabbits (13 weeks old, Std: JW/CSK, Japan SLC, Inc.) were anesthetized by intravenous injection of pentobarbital sodium (25 mg/kg), and then topical anesthesia was made by instillation of 0.4% oxybuprocaine hydrochloride to both eyes. The corneal wound was produced bilaterally using a 6-mm trephine and 27-gauge needle according to the method described by Hatano H et al. (Japanese Review of Clinical Ophthalmology 79: 1153, 1985). Forty microliters of the bacterial suspension prepared above was instilled onto the wounded cornea twice (Day 1, 21:00). After bacterial inoculation, the rabbits were divided into 4 groups (three rabbits-six eyes/group). Fifty microliters of each test substance or vehicle was topically applied to both eyes of each animal once 12 hours after bacterial inoculation (Day 2, 9:00). […] Four hours after administration of test substances, the animals were sacrificed with an intravenous overdose of pentobarbital sodium, eyes were enucleated, and then corneas were excised using a 6-mm trephine. After weighing, each cornea was homogenized in 1 mL of sterile physiological saline. Aliquot (0.1 mL) of each homogenate was plated on NAC agar, and incubated for 24 hours at 37° C. The colonies were then counted. All quantitative cultures were run in triplicate, and the arithmetic mean of three measurements was determined for each cornea. Results were expressed as the number of organisms (determined by measures of colony forming units [CFU]) per gram of corneal weight.

[3] abbreviates: 0.06% FK-506, 50 microliters topically 4 times a day from 12 hours after inoculation.
Setting [4] is: 0.3% ofloxacin, 50 microliters topically 4 times a day from 12 hours after inoculation.

Marks after values point to notes of the source that are not given here.

Take `C=CCC1/C=C(\C)CC(C)CC(OC)C2OC(O)(C(=O)C(=O)N3CCCCC3C(=O)OC(/C(C)=C/C3CCC(O)C(OC)C3)C(C)C(O)CC1=O)C(C)CC2OC` (stereo not drawn) [FK-506, 17-allyl-1,14-dihydroxy-12-[2-(4-hydroxy-3-methoxycyclohexyl)-1-methylvinyl]-23,25-dimethoxy-13,19,21,27-tetramethyl-11,28-dioxa-4-azatricyclo [22.3.1.0^4,9]octacos-18-ene-2,3,10,16-tetraone]: the “Effect on conjunctival inflammation (in words)” value in assay [1] (0.06% FK-506, 4 times a day, 48 hours after inoculation) is recorded as “tended to decrease the conjunctival inflammation”. Further, the “Effect on corneal inflammation (in words)” value in assay [1] (0.06% FK-506, 4 times a day, 60 hours after inoculation) is “tended to decrease the corneal inflammation”. For the same compound, in assay [1] (setting [3]), the “Score (conjunctiva) Mean ± SE” value came to 6.7 ± 0.4 and the “Score (cornea) Mean ± SE” value is given as 6.0 ± 0.0. In addition, the “Colony forming units per gram of cornea Mean ± SE” value in assay [2] (0.06% FK-506, 50 microliters topically to both eyes once 12 hours after bacterial inoculation) is listed as 31225 ± 7204 Colony forming units per gram of cornea. The “Effect on viable Pseudomonas counts (in words)” value in assay [2] (0.06% FK-506, single topical application, compared with vehicle treatment) was “decreased the viable Pseudomonas counts as compared with vehicle treatment, but not significantly”.

As for `CC1COc2c(N3CCN(C)CC3)c(F)cc3c(=O)c(C(=O)O)cn1c23` (stereo not drawn) [ofloxacin], in assay [1] (setting [4]), the “Score (conjunctiva) Mean ± SE” value is 6.0 ± 0.5 and the “Score (cornea) Mean ± SE” value is reported as 2.1 ± 0.4^a). For the same compound, the “Colony forming units per gram of cornea Mean ± SE” value in assay [2] (0.3% ofloxacin, 50 microliters topically to both eyes once 12 hours after bacterial inoculation) is given as 0^a),b) Colony forming units per gram of cornea.

Values taken from patent US7033604B2, “Composition for topical administration” (Sucampo AG, priority 2001, dated 2006).
